From US20090029367A1 (AstraZeneca AB, priority 2005, published 2009)

Tests used:
[1] = biological target: PON1 (Homo sapiens, UniProt P27169); conditions: cited from earlier work
[2] = tested on: alanine aminotransferase (ALAT); assay: ALAT elevation during longer-term treatment with ximelagatran (clinical trials); format: in vivo, human
From the text: Phase III clinical trials have been performed using fixed doses of melagatran and ximelagatran for the prevention of VTE in hip or knee replacement surgery. In addition, clinical trials have been performed using ximelagatran for the treatment and long-term secondary prevention of VTE, and for the prevention of stroke in patients with non-valvular atrial fibrillation. Ximelagatran has also been tested for secondary thrombosis prophylaxis post-myocardial infarction/acute coronary syndrome (ACS).
Alanine aminotransferrase (ALAT) is an enzyme mostly expressed in the liver (EC 2.6.1.2). It is also called serum glutamate pyruvate transaminase (SGPT) or alanine transaminase (ALT). This enzyme is release into the plasma by liver cell death, which is a normal event. However, when liver cell death increases, ALAT levels rise above the normal range. The spill-over of this enzyme into blood is routinely measured as a marker of abnormal liver-cell damage. For example, alcoholic or viral hepatitis will increase ALAT levels, as will severe congestive heart failure. ALAT is also markedly raised in hepatitis and other acute liver damage. An elevated ALAT in the presence of normal levels of plasma alkaline phosphatase helps distinguish liver disease caused by liver-cell damage from diseases caused by problems in biliary ducts. Elevations of ALAT are normally measured in multiples of the upper limit of normal (ULN), with a reference range of 15-45 U/L in most laboratories. In 1987, in a study of 19,877 healthy Air Force recruits, only 99 (0.5%) had confirmed ALAT elevations (as reviewed in Green & Flamm (2002) Gastroenterology 123:1367-1384).
The increase in ALAT values with ximelagatran usually occurred within the first 6 months of treatment and were mainly asymptomatic. […] Subject to the future regulatory approval of ximelagatran, regular liver function testing (LFT) using an appropriate algorithm may be required if ximelagatran is used for treatment periods exceeding a month. […]

PON1, sequence (P27169 whole entry): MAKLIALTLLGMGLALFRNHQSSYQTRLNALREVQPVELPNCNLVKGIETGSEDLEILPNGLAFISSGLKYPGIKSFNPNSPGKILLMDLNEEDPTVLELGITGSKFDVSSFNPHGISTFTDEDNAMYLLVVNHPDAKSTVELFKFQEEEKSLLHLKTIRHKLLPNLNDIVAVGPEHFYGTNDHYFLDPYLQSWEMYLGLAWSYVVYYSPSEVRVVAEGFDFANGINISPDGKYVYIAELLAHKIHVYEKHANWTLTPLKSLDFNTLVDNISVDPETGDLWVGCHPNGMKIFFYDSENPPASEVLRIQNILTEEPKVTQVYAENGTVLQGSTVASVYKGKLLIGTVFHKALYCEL

Structure (SMILES) | hydrolysis by PON1 [1] | patients exhibiting levels of alanine aminotransferase (ALAT) 3-fold or more above the upper limit of normal (≧3×ULN) ([2]; longer-term treatment (>35 days), 1.2% in the comparator groups) [%] | reversibility of ALAT increases ([2]; regardless of whether treatment was continued or discontinued) | time of occurrence of the increase in ALAT values ([2]; usually, of treatment, mainly asymptomatic) [months]
CC[C@H](C)C(=O)O[C@H]1C[C@@H](C)C=C2C=C[C@H](C)[C@H](CC[C@@H]3C[C@@H](O)CC(=O)O3)[C@H]21 [lovastatin] | hydrolyzed by PON1 |  |  | 
CCOC(=O)CN[C@@H](C(=O)N1CC[C@H]1C(=O)NCc1ccc(/C(N)=N\O)cc1)C1CCCCC1 [ximelagatran, EtOOC—CH2—(R)Cgl-Aze-Pab-OH] |  | 7.9 | reversible in most patients | ≤ 6
CC(=O)S[C@@H]1CC2=CC(=O)CC[C@]2(C)[C@H]2CC[C@@]3(C)[C@@H](CC[C@@]34CCC(=O)O4)[C@H]12 [spironolactone] | hydrolyzed by PON1 |  |  | 
CC[C@H](C)C(=O)O[C@H]1CCC=C2C=C[C@H](C)[C@H](CC[C@@H]3C[C@@H](O)CC(=O)O3)[C@H]21 [mevastatin] | hydrolyzed by PON1 |  |  | 
